Measured values taken from patent publication US6551583B2, “Antibiofouling method and apparatus for optical sensors” (Airak, Inc,, priority 2000, dated 2003).

Assay: effectiveness of biocides for optrode protection against biofouling
Settings: ppb concentrations

N#Cc1c(Cl)c(Cl)c(Cl)c(C#N)c1Cl [chlorothalonil]
biocide effectiveness (optrode protection): effective even at ppb concentrations
